Values of other authors in patent publication US10278869B2, “Apparatus for aspirating, irrigating and cleansing wounds” (SMITH & NEPHEW PLC, priority 2002, dated 2019).

Conditions: EP standard, CRS

Substance: gentamycin sulphate
- activity: 616 IU mg^−1
